Measured values reported in patent publication US4923965A, “Tripeptides of N^3 -4-methoxyfumaryl-L-2,3-diaminopropanoic acid” (Politechnika Gdanska, priority 1988, dated 1990).
≈ marks a conversion by molar mass, not a printed value. Structures can show the parent of a compound that is named as a salt.

What was measured:
[1] = MIC stated in the synthesis examples; format: cell-based; conditions: strain and medium not given
[2] = test system: Candida albicans ATCC 26278; experiment: minimum inhibitory concentration for elected strain; format: cell-based
Protocol: The in vitro activity has been evaluated by the method of serial dilutions in parallel on solid YNB medium and on YNB w/o+AN medium, where the abbreviation AN means 200 mg of sodium glutamate, 10 mg of L-histidine, 20 mg of DL-methionine, 20 mg DL-tryptophane, 10 g of glucose and 15 g of agar-agar per 1 liter of the YNB medium. The application of the medium modified in such a manner was made necessary by the known phenomenon of lower biological activity in the media containing ammonium sulphate as a source of nitrogen.

Row | Structure (SMILES) | MIC [1] [µg/mL] | minimum inhibitory concentration, MIC [2] [µg/mL]
1 | CCC[C@H](NC(=O)[C@@H](N)CCSC)C(=O)N[C@@H](CNC(=O)/C=C/C(=O)OC)C(=O)O [XVI, N^2 -L-methionyl-L-norvalyl, N^3-4-methoxyfumaryl-L-2,3-diaminopropanoic hydrochloride] | 0.8 | 0.4
2 | COC(=O)/C=C/C(=O)NC[C@H](NC(=O)[C@@H](N)CCSC)C(=O)N[C@@H](CCSC)C(=O)O [VIII, N^2 -L-methionyl, n^3-4-methoxyfumaryl-L-2,3-diaminopropanoyl-L-methonine hydrochloride] | 0.8 | 
3 | CCC[C@H](NC(=O)[C@@H](N)CCCCN)C(=O)N[C@@H](CNC(=O)/C=C/C(=O)OC)C(=O)O [XXII, N^2 --L-lysyl-L-norvalyl-N^3-4-methoxyfumaryl-L-2,3-diaminopropanoic dihydrochloride] |  | 0.02
4 | COC(=O)/C=C/C(=O)NC[C@H](N)C(=O)N[C@@H](CCSC)C(=O)N[C@@H](C)C(=O)O [Example I, N^3-4-methoxyfumaryl-L-2,3-diaminopropanoyl-L-methionyl-L-aniline] | 0.1 (≈ 0.239 µM) | 
